Bridge positions count the residues as written; N and C are the ends. Ends that are not written are not given here. Peptide text beside a SMILES is read from it. I, II: the chains in the order shown. * marks the point of attachment. X1 = NC(=O)CC[C@H](NC(=O)[C@@H](N)CS*)C(=O)N[C@@H](CCC(=O)O)C(=O)O
Legend:
porcine pepsin = target: T1, porcine pepsin (Sus scrofa, UniProt P00791); experiment: In vitro simulated gastric digestion (G60); format: in vitro ADME; conditions: simulated gastric fluid 35 mM NaCl pH 2, porcine pepsin enzyme/substrate 1:20 w/w, 37 °C, 60 min; UHPLC-HRMS extracted ion chromatogram, 20 ppm window, semi-quantified; triplicate aliquots
T1 construct: purchased Sigma-Aldrich (Madrid, Spain)
T1 sequence (P00791 60-385): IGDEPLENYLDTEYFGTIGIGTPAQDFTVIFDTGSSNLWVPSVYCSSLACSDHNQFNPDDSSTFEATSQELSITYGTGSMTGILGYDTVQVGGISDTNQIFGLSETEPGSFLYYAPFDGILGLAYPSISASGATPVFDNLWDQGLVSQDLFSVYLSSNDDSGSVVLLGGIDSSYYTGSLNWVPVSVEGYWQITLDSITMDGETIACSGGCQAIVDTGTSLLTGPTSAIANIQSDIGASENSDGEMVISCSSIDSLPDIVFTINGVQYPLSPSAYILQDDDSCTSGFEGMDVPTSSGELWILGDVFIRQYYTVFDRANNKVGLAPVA
Protocol: For the in vitro simulated peptide GI digestion, a two-stage hydrolysis process was carried out according to Martos et al.. […] was dissolved in simulated gastric fluid (35 mM NaCl at pH 2 for 15 min) and posteriorly subjected to digestion by porcine pepsin (E.C. 3.4.23.1, 3440 units/mg) at an enzyme/substrate ratio of 1: 20 w/w at 37 °C for 60 min. Gastric digestion with pepsin was stopped by adding 1 M NaHCO3 and pH was adjusted to 7.0 with NaOH 1 M (final protein concentration of 5 mg/mL). Aliquots of this gastric digest were collected (G60) and stored at −20 °C until analysis. Duodenal digestions were performed by using, as the starting material, the obtained gastric digests, with the addition of 1 M CaCl2, 0.25 M bis-Tris pH 6.5, 0.25 M bis-Tris pH 6.5, and a 0.125 M bile salts mixture containing equimolar quantities of sodium taurocholate and glycodeoxycholic acid. Posteriorly, the duodenal enzymes trypsin (EC 232-650-8, 10100 BAEE units/mg protein), α-chymotrypsin (EC 232-671-2; 55 units/mg protein), porcine pancreatic lipase (EC 232-619-9) and colipase (EC 259-490-1), prepared in 35 mM NaCl adjusted to pH 7, were added to the solution. Duodenal digestion was carried out at pH 7, 37 °C during 60 (D60). Then, enzymes were inactivated by heating at 95 °C for 10 min in a water bath, followed by cooling to room temperature. Triplicates of aliquots at each time point were collected and stored at −20 °C until analysis.
(§1) Samples obtained from in vitro peptide simulated digestion and Caco-2 monolayers were diluted 10 times with water (0.1% FA) and centrifuged (15,000 rpm, 15 min, 4 °C). Supernatants were directly analyzed by UHPLC-HRMS to avoid the loss of polar peptide fragments. Extensive clean-up or pre-concentration procedures were not necessary due to the high concentration of peptide and low matrix complexity than plasma samples.
(§2) The obtained purified solutions from plasma and peptide digests G60 and D60 and from AP and BL chambers in Caco-2 experiment were analyzed using a UHPLC 1290 Infinity II Series coupled to a QqQ 6490 Series (Agilent Technologies, Santa Clara, CA, USA) for tandem mass experiments or a qTOF 6550 Series (Agilent Technologies) for high-resolution mass spectrometry experiments. Chromatographic separation of peptide or their fragments were performed using a Kinetex 2.6 µm EVO C18 column (150 × 2.1 mm, […]) from (Phenomenex, Torrance, USA) as stationary phase and water containing 0.1% formic acid (solvent A) and acetonitrile (solvent B) as mobile phase. The separation was performed in gradient elution as follows: isocratic; 0–0.5 min, 2 % B; 0.5–1 min, 2–6% B; 1–5 min, 6–15% B; 5–6 min, 15–35% B; 6–10 min, 35–98% B; 10–12 min, 98% B isocratic; 12–12.10, 98–2% B. For all runs, 10 μL of the sample (4 °C) was injected, and the flow rate was 0.350 mL/min and the column temperature was 25 °C.
(§3) For in vitro simulated digestion experiments and Caco-2 monolayer samples, qTOF instrument was used to investigate the presence of unknown peptide fragments and previously in silico predicted peptide fragments by means of its accurate mass. Peptide and its fragments were semi-quantified using the chromatographic peak area observed in the extracted ion chromatograms using a 20 ppm mass window.

Caco-2 cell monolayers = experiment: Transepithelial transport through Caco-2 monolayer; format: in vitro ADME; conditions: 21 days, TEER > 200 Ω/cm^2, gastric digest G60 added to apical chamber, AP to BL, 1 h, 37 °C, HBSS, content in basolateral chamber in comparison to apical chamber, UHPLC-HRMS, triplicates
Protocol: Caco-2 cells were obtained from Sigma-Aldrich and were grown Dulbecco’s modified minimum essential medium (DMEM), supplemented with 20% fetal bovine serum (FBS), […] L-glutamine, 100 U/mL penicillin and 100 μg/mL streptomycin at 37 °C in and 5% CO2. Cells were seeded onto Transwell inserts permeable membrane support (0.4 µm pore, 24 mm diameter, 4.7 cm^2 grown surface from Merck Co., Bedford, MA, USA) placed in six-well plates. The seeding density was 12,000 cell/cm^2. The medium was replaced every 2–3 days and cells were growing for 21 days. On the 21st day of the procedure, the integrity of the Caco-2 monolayer was assessed by the measurement of transepithelial electrical resistance (TEER) using a Millicell ERS-2 voltammeter (EMD Millipore, Darmstadt, Germany) selecting the ones with TEER values higher than 200 Ω/cm^2.
For the transport study, Caco-2 cells, maintained in DMEM, were gently rinsed with Hank’s balanced salt solution (HBSS) and equilibrated for 20 min at 37 °C prior to the transport study. Then, it was evaluated the transepithelial transport of the peptide […] (1 mM) dissolved in HBSS and the digests obtained in the in vitro simulated digestion (G60 and D60). […] or the peptide digests G60 and D60 were added to the apical (AP) chamber and were incubated for 1 h at 37 °C. After this time, triplicates of the AP chamber content and the basolateral (BL) chamber content were taken and stored at −80 °C until ultra-high performance liquid chromatography-high resolution mass spectrometry (UHPLC-HRMS) analyses.
as §1, §2, §3

[1] = system: spontaneously hypertensive rats; experiment: Systolic blood pressure in SHR with or without Naloxone (tail-cuff); format: in vivo, rat; conditions: 50 mg/kg bw oral, Naloxone 3 mg/kg bw or saline, 6 h post-administration, n = 6
Protocol: Male, 17–20-week-old, SHR, weighing 286 ± 4 g were used in this study. All these animals were obtained from Charles River Laboratories Spain. The SHR were housed at a temperature of 23 °C with 12 h light/dark cycles and had free access to tap water and a standard diet (A04 Panlab). Before the experiments, rats were submitted to a training period of 10 days to guarantee the reliability of the measurements. To evaluate if […] presented an opioid-mediated effect, SHR received via subcutaneous 100 µL of Naloxone (3 mg/kg bw), and afterward a single oral dose (1 mL) of […] (10 mg/kg bw). Additionally, water, Captopril (50 mg/kg bw), known antihypertensive drug, and chicken foot hydrolysate Hpp11 (55 mg/kg bw), were administered as controls. Captopril and Hpp11 can inhibit ACE in vivo. […] Systolic blood pressure (SBP) was recorded in the rats by the tail-cuff method before and 2, 4, and 6 h post-administration. […]
Results from transepithelial transport studies are presented as means ± standard error means (SEM). […] The results for the experiments investigating the participation of opioid receptors in the […], Captopril and Hpp11 antihypertensive effect were expressed as the mean ± SEM of six animals per group (heterogeneity was tested by Levene’s test) and were analyzed by one-way ANOVA (Tukey’s test) using IBM SPSS Statistics 20.0 software. […]

[2] = peptides derived from Manchego cheese; ref Ruiz et al.; cited from earlier work
Protocol: Simulated in vitro gastrointestinal digestion model was used to investigate the releasing of the amino acid sequences previously predicted in the in silico approach. The peptide was sequentially digested under physiological conditions and the identification of amino acid sequences in samples obtained from both gastric and intestinal digestion were performed by UHPLC-HRMS (Table 2). When the results obtained by the in silico approach and in vitro approach were compared, it was observed that only two of the fourteen predicted peptide fragments from the in silico approach were identified in the i ...

Caco-2 monolayer = conditions: cited from earlier work
Protocol: To verify the lack of absorption of the peptide or their resultant fragments in the GI tract an additional study using Caco-2 cells was carried out. The native peptide […] and the samples collected after the simulated gastric and duodenal digestions (G60 and D60, respectively) were incubated in Caco-2 monolayer for 1 h. The peptide and its resultant fragments were identified in the AP chamber from G60 samples, however, only 0.10–0.25% were transported to the BL chamber (Table 3). Therefore, the presence of native […] in the AP chamber after 1 h of incubation and the absence of the ...

opioid receptors = conditions: non-selective opioid receptor antagonist Naloxone; cited from earlier work
Description: However, some bioactive peptides might mediate their physiological effects through its binding to receptors present in the intestinal wall, implying that their absorption is not required. […] These opioid-like peptides are atypical opioid ligands that are released from the hydrolysis of food and present N-terminal sequences that are different fro ...

For `CC(C)[C@H](NC(=O)[C@H](C)N)C(=O)N[C@@H](Cc1ccccc1)C(=O)N[C@@H](CCC(N)=O)C(=O)N[C@@H](Cc1c[nH]cn1)C(=O)N[C@@H](CC(N)=O)C(=O)N[C@@H](CSSC[C@H](N)C(=O)N[C@@H](CCC(N)=O)C(=O)N[C@@H](CCC(=O)O)C(=O)O)C(=O)N[C@@H](CCC(N)=O)C(=O)N[C@@H](CCC(=O)O)C(=O)O` (H-AVFQHNC(X1)QE-OH), the “Area G60 (chromatographic peak area)” value (porcine pepsin) was 93,694 and the “G60 % Transport” value (Caco-2 cell monolayers) was 0.15%.
With `CC(C)[C@H](NC(=O)[C@H](C)N)C(=O)N[C@@H](Cc1ccccc1)C(=O)N[C@@H](CCC(N)=O)C(=O)N[C@@H](Cc1c[nH]cn1)C(=O)N[C@@H](CC(N)=O)C(=O)N[C@@H](CSSC[C@H](NC(=O)[C@H](CC(N)=O)NC(=O)[C@H](Cc1c[nH]cn1)NC(=O)[C@H](CCC(N)=O)NC(=O)[C@H](Cc1ccccc1)NC(=O)[C@@H](NC(=O)[C@H](C)N)C(C)C)C(=O)N[C@@H](CCC(N)=O)C(=O)N[C@@H](CCC(=O)O)C(=O)O)C(=O)N[C@@H](CCC(N)=O)C(=O)N[C@@H](CCC(=O)O)C(=O)O` (I: H-AVFQHNCQE-OH / II: H-AVFQHNCQE-OH; disulfide I:7-II:7) the “Area G60 (chromatographic peak area)” value (porcine pepsin) was 605,812 and the “G60 % Transport” value (Caco-2 cell monolayers) was 0.11%.
With `CC(C)[C@H](NC(=O)[C@H](C)N)C(=O)N[C@@H](Cc1ccccc1)C(=O)N[C@@H](CCC(N)=O)C(=O)N[C@@H](Cc1c[nH]cn1)C(=O)N[C@@H](CC(N)=O)C(=O)N[C@@H](CSSC[C@H](NC(=O)[C@H](CC(N)=O)NC(=O)[C@H](Cc1c[nH]cn1)NC(=O)[C@@H](N)CCC(N)=O)C(=O)N[C@@H](CCC(N)=O)C(=O)N[C@@H](CCC(=O)O)C(=O)O)C(=O)N[C@@H](CCC(N)=O)C(=O)N[C@@H](CCC(=O)O)C(=O)O` (I: H-AVFQHNCQE-OH / II: H-QHNCQE-OH; disulfide I:7-II:4) the “Area G60 (chromatographic peak area)” value (porcine pepsin) was 136,056 and the “G60 % Transport” value (Caco-2 cell monolayers) was 0.15%.
With `CC(C)[C@H](NC(=O)[C@H](C)N)C(=O)N[C@@H](Cc1ccccc1)C(=O)O` [AVF] (H-Ala-Val-Phe-OH) the “Area G60 (chromatographic peak area)” value (porcine pepsin) was 200,712 and the “G60 % Transport” value (Caco-2 cell monolayers) was 0.15%.
For `C[C@H](CS)C(=O)N1CCC[C@H]1C(=O)O` [Captopril], the “BP reduction in naloxone-treated and saline-treated rats” value [1] was “able to reduce BP in rats treated with Naloxone and in rats treated with saline”.
With AVFQH [AVFQH] the “Area G60 (chromatographic peak area)” value (porcine pepsin) was 155,533 and the “G60 % Transport” value (Caco-2 cell monolayers) was 0.17%.
For AVFQHN [AVFQHN], the “Area G60 (chromatographic peak area)” value (porcine pepsin) was 685,482 and the “G60 % Transport” value (Caco-2 cell monolayers) was 0.10%.
With AVFQHNC [AVFQHNC] the “Area G60 (chromatographic peak area)” value (porcine pepsin) was 220,051 and the “G60 % Transport” value (Caco-2 cell monolayers) was 0.60%.
In the case of “KKYNVPQL [peptide derived from Manchego cheese]”, the “Resistance to GI digestion” value [2] is given as “resistance to GI digestion”.
For QHNCQE [QHNCQE], the “Area G60 (chromatographic peak area)” value (porcine pepsin) was 288,536.
For “RADHP [antihypertensive peptide reported by Miguel et al]”, the “Transport through Caco-2 monolayer” value (Caco-2 monolayer) is listed as “lack of transported through Caco-2 monolayer”.
For “VRYL [peptide derived from Manchego cheese]”, the “Resistance to GI digestion” value [2] is given as “resistance to GI digestion”.
For “YGLF [α-lactorphin, milk-derived opioid-like antihypertensive peptide]”, the “BP-lowering effect after administration of Naloxone” value (opioid receptors) is given as “abolished”.
